Patent US20090010976A1, “Cosmetic or dermopharmaceutical compositions containing kombucha” (SEDERMA, priority 2002, published 2009)

Test system: serum albumin
Assay: Anti-glycation effect: serum albumin incubated with fructose, fluorescent 'AGE' (FFI) formation
Assay type: biochemical
Conditions: one week
Experimental: Principle: The in vitro model consists in serum albumin incubated with fructose at […]. Glycation is monitored through the formation of fluorescent compounds, generally pentosidines or FFI (furoyl-furanyl-imidazoles.
Protocol: Non-enzymatic glycation between serum albumin and fructose is a slow spontaneous reaction that is accelerated by heat.
In our test, serum albumin (at 2%) and fructose (at 100 mM) were incubated in phosphate buffer medium pH 7.4 at 50° C. for one week. […] The reference (Control) glycation value after one week is determined on the serum albumin and fructose incubation medium. The positive control for glycation inhibition is obtained by incubation in the presence of 0.03% aminoguanidine and the test incubations were conducted in the presence of kombucha at various concentrations.
Results: For each fluorescence value determined, the percentage change on the control is calculated. The results shown in the following table are mean values for n=4 replicates.

N=C(N)NN [aminoguanidine]
% 'AGE' decrease (inhibition of 'AGE' production, FFI compounds) (aminoguanidine 0.03%, serum albumin 2% + fructose 100 mM, pH 7.4, 50° C., mean of n=4): 89 ± 5% | Inhibition of glycation, result in words (serum albumin + fructose, 50° C.): excellent inhibition of glycation
